# Experimental data taken from ChEMBL document CHEMBL1671742, “Overexpression of the adeB gene in clinical isolates of tigecycline-nonsusceptible Acinetobacter baumannii without insertion mutations in adeRS” (Antimicrob Agents Chemother, 2010).
# Assays:
# Acinetobacter baumannii [1] = experiment: Antibacterial activity against intI1-positive tigecycline-resistant Acinetobacter baumannii AB106 with PFGE subgroup B1 containing carbapenemase OXA-23 and OXA-51 by Etest; type: functional
# Acinetobacter baumannii [2] = experiment: Antibacterial activity against intI1-positive tigecycline-susceptible Acinetobacter baumannii AB018 with PFGE subgroup G containing carbapenemase OXA-58 and OXA-51 by Etest; type: functional
# Acinetobacter baumannii [3] = experiment: Antibacterial activity against intI1-positive tigecycline-resistant Acinetobacter baumannii AB168 with PFGE subgroup A1 containing carbapenemase OXA-23 and OXA-51 by Etest; type: functional
# Acinetobacter baumannii [4] = experiment: Antibacterial activity against intI1-positive tigecycline-resistant Acinetobacter baumannii AB118 with PFGE subgroup B2 containing carbapenemase OXA-23 and OXA-51 by Etest; type: functional
# Acinetobacter baumannii [5] = experiment: Antibacterial activity against intI1-positive tigecycline-susceptible Acinetobacter baumannii AB039 with PFGE subgroup B1 containing carbapenemase OXA-23 and OXA-51 by Etest; type: functional
# Acinetobacter baumannii [6] = experiment: Antibacterial activity against intI1-positive tigecycline-resistant Acinetobacter baumannii AB173 with PFGE subgroup B1 containing carbapenemase OXA-23 and OXA-51 by Etest; type: functional
# Acinetobacter baumannii [7] = experiment: Antibacterial activity against intI1-positive tigecycline-intermediate Acinetobacter baumannii AB166 with PFGE subgroup A3 containing carbapenemase OXA-51 by Etest; type: functional
# Acinetobacter baumannii [8] = experiment: Antibacterial activity against intI1-positive tigecycline-resistant Acinetobacter baumannii AB134 with PFGE subgroup A2 containing carbapenemase OXA-23 and OXA-51 by Etest; type: functional
# Acinetobacter baumannii [9] = experiment: Antibacterial activity against intI1-positive tigecycline-resistant Acinetobacter baumannii AB096 with PFGE subgroup B1 containing carbapenemase OXA-23 and OXA-51 by Etest; type: functional
# Acinetobacter baumannii [10] = experiment: Antibacterial activity against intI1-positive tigecycline-susceptible Acinetobacter baumannii AB110 with PFGE subgroup C containing carbapenemase OXA-51 by Etest; type: functional
# Acinetobacter baumannii [11] = experiment: Antibacterial activity against intI1-positive tigecycline-intermediate Acinetobacter baumannii AB099 with PFGE subgroup H containing carbapenemase OXA-23 and OXA-51 by Etest; type: functional
# Acinetobacter baumannii [12] = experiment: Antibacterial activity against intI1-positive tigecycline-resistant Acinetobacter baumannii AB125 with PFGE subgroup A1 containing carbapenemase OXA-23 and OXA-51 by Etest; type: functional
# Acinetobacter baumannii [13] = experiment: Antibacterial activity against intI1-positive tigecycline-resistant Acinetobacter baumannii AB097 with PFGE subgroup B1 containing carbapenemase OXA-23 and OXA-51 by Etest; type: functional
# Acinetobacter baumannii [14] = experiment: Antibacterial activity against intI1-positive tigecycline-resistant Acinetobacter baumannii AB113 with PFGE subgroup B1 containing carbapenemase OXA-23 and OXA-51 by Etest; type: functional
# Acinetobacter baumannii [15] = experiment: Antibacterial activity against intI1-positive tigecycline-susceptible Acinetobacter baumannii AB095 with PFGE subgroup E containing carbapenemase OXA-23 and OXA-51 by Etest; type: functional
# Acinetobacter baumannii [16] = experiment: Antibacterial activity against intI1-positive tigecycline-intermediate Acinetobacter baumannii AB127 with PFGE subgroup I containing carbapenemase OXA-23 and OXA-51 by Etest; type: functional
# Acinetobacter baumannii [17] = experiment: Antibacterial activity against intI1-negative tigecycline-intermediate Acinetobacter baumannii AB098 with PFGE subgroup F containing carbapenemase OXA-23 and OXA-51 by Etest; type: functional
# Acinetobacter baumannii [18] = experiment: Antibacterial activity against intI1-positive tigecycline-resistant Acinetobacter baumannii AB168 with PFGE subgroup A1 containing carbapenemase OXA-23 and OXA-51 by Etest in presence of 64 mg/liter 1-(1-naphthylmethyl)-piperazine; type: functional
# Acinetobacter baumannii [19] = experiment: Antibacterial activity against intI1-positive tigecycline-resistant Acinetobacter baumannii AB173 with PFGE subgroup B1 containing carbapenemase OXA-23 and OXA-51 by Etest in presence of 64 mg/liter 1-(1-naphthylmethyl)-piperazine; type: functional
# Acinetobacter baumannii [20] = experiment: Antibacterial activity against intI1-positive tigecycline-susceptible Acinetobacter baumannii AB039 with PFGE subgroup B1 containing carbapenemase OXA-23 and OXA-51 by Etest in presence of 64 mg/liter 1-(1-naphthylmethyl)-piperazine; type: functional
# Acinetobacter baumannii [21] = experiment: Antibacterial activity against intI1-positive tigecycline-resistant Acinetobacter baumannii AB106 with PFGE subgroup B1 containing carbapenemase OXA-23 and OXA-51 by Etest in presence of 64 mg/liter 1-(1-naphthylmethyl)-piperazine; type: functional
# Acinetobacter baumannii [22] = experiment: Antibacterial activity against intI1-positive tigecycline-resistant Acinetobacter baumannii AB096 with PFGE subgroup B1 containing carbapenemase OXA-23 and OXA-51 by Etest in presence of 64 mg/liter 1-(1-naphthylmethyl)-piperazine; type: functional
# Acinetobacter baumannii [23] = experiment: Antibacterial activity against intI1-positive tigecycline-susceptible Acinetobacter baumannii AB018 with PFGE subgroup G containing carbapenemase OXA-58 and OXA-51 by Etest in presence of 64 mg/liter 1-(1-naphthylmethyl)-piperazine; type: functional
# Acinetobacter baumannii [24] = experiment: Antibacterial activity against intI1-positive tigecycline-susceptible Acinetobacter baumannii AB095 with PFGE subgroup E containing carbapenemase OXA-23 and OXA-51 by Etest in presence of 64 mg/liter 1-(1-naphthylmethyl)-piperazine; type: functional
# Serum = experiment: Steady state drug concentration in human serum; type: ADME, cell-free
# Acinetobacter baumannii [25] = experiment: Antibacterial activity against intI1-positive tigecycline-resistant Acinetobacter baumannii AB113 with PFGE subgroup B1 containing carbapenemase OXA-23 and OXA-51 by Etest in presence of 64 mg/liter 1-(1-naphthylmethyl)-piperazine; type: functional
# Acinetobacter baumannii [26] = experiment: Antibacterial activity against intI1-positive tigecycline-susceptible Acinetobacter baumannii AB110 with PFGE subgroup C containing carbapenemase OXA-51 by Etest in presence of 64 mg/liter 1-(1-naphthylmethyl)-piperazine; type: functional
# Acinetobacter baumannii [27] = experiment: Antibacterial activity against intI1-positive tigecycline-intermediate Acinetobacter baumannii AB166 with PFGE subgroup A3 containing carbapenemase OXA-51 by Etest in presence of 64 mg/liter 1-(1-naphthylmethyl)-piperazine; type: functional
# Acinetobacter baumannii [28] = experiment: Antibacterial activity against Multidrug-resistant Acinetobacter baumannii clinical isolate by broth microdilution method; type: functional
# Acinetobacter baumannii [29] = experiment: Antibacterial activity against intI1-positive tigecycline-resistant Acinetobacter baumannii AB118 with PFGE subgroup B2 containing carbapenemase OXA-23 and OXA-51 by Etest in presence of 64 mg/liter 1-(1-naphthylmethyl)-piperazine; type: functional
# Acinetobacter baumannii [30] = experiment: Antibacterial activity against intI1-positive tigecycline-resistant Acinetobacter baumannii AB125 with PFGE subgroup A1 containing carbapenemase OXA-23 and OXA-51 by Etest in presence of 64 mg/liter 1-(1-naphthylmethyl)-piperazine; type: functional
# Acinetobacter baumannii [31] = experiment: Antibacterial activity against intI1-positive tigecycline-resistant Acinetobacter baumannii AB134 with PFGE subgroup A2 containing carbapenemase OXA-23 and OXA-51 by Etest in presence of 64 mg/liter 1-(1-naphthylmethyl)-piperazine; type: functional
# Acinetobacter baumannii [32] = experiment: Antibacterial activity against intI1-positive tigecycline-intermediate Acinetobacter baumannii AB099 with PFGE subgroup H containing carbapenemase OXA-23 and OXA-51 by Etest in presence of 64 mg/liter 1-(1-naphthylmethyl)-piperazine; type: functional
# Acinetobacter baumannii [33] = experiment: Antibacterial activity against Multidrug-resistant Acinetobacter baumannii by broth microdilution method; type: functional
# Acinetobacter baumannii [34] = experiment: Antibacterial activity against intI1-positive tigecycline-resistant Acinetobacter baumannii AB097 with PFGE subgroup B1 containing carbapenemase OXA-23 and OXA-51 by Etest in presence of 64 mg/liter 1-(1-naphthylmethyl)-piperazine; type: functional
# Acinetobacter baumannii [35] = experiment: Antibacterial activity against intI1-negative tigecycline-intermediate Acinetobacter baumannii AB098 with PFGE subgroup F containing carbapenemase OXA-23 and OXA-51 by Etest in presence of 64 mg/liter 1-(1-naphthylmethyl)-piperazine; type: functional
# Acinetobacter baumannii [36] = experiment: Antibacterial activity against intI1-positive tigecycline-intermediate Acinetobacter baumannii AB127 with PFGE subgroup I containing carbapenemase OXA-23 and OXA-51 by Etest in presence of 64 mg/liter 1-(1-naphthylmethyl)-piperazine; type: functional
smiles,measurement,setting,value
C[C@@H](O)[C@H]1C(=O)N2C(C(=O)O)=C(SCCNC=N)C[C@H]12 [IMIPENEM ANHYDROUS],MIC,Acinetobacter baumannii [1],> 32 µg/mL
same,MIC,Acinetobacter baumannii [2],8 µg/mL
same,MIC,Acinetobacter baumannii [3],> 32 µg/mL
same,MIC,Acinetobacter baumannii [4],> 32 µg/mL
same,MIC,Acinetobacter baumannii [5],> 32 µg/mL
same,MIC,Acinetobacter baumannii [6],32 µg/mL
same,MIC,Acinetobacter baumannii [7],6 µg/mL
same,MIC,Acinetobacter baumannii [8],> 32 µg/mL
same,MIC,Acinetobacter baumannii [9],> 32 µg/mL
same,MIC,Acinetobacter baumannii [10],1.5 µg/mL
same,MIC,Acinetobacter baumannii [11],> 32 µg/mL
same,MIC,Acinetobacter baumannii [12],> 32 µg/mL
same,MIC,Acinetobacter baumannii [13],> 32 µg/mL
same,MIC,Acinetobacter baumannii [14],32 µg/mL
same,MIC,Acinetobacter baumannii [15],32 µg/mL
same,MIC,Acinetobacter baumannii [16],32 µg/mL
same,MIC,Acinetobacter baumannii [17],> 32 µg/mL
C[C@H]1COc2c(N3CCN(C)CC3)c(F)cc3c(=O)c(C(=O)O)cn1c23.C[C@H]1COc2c(N3CCN(C)CC3)c(F)cc3c(=O)c(C(=O)O)cn1c23.O [LEVOFLOXACIN],MIC,Acinetobacter baumannii [1],32 µg/mL
same,MIC,Acinetobacter baumannii [2],6 µg/mL
same,MIC,Acinetobacter baumannii [3],> 32 µg/mL
same,MIC,Acinetobacter baumannii [4],> 32 µg/mL
same,MIC,Acinetobacter baumannii [6],> 32 µg/mL
same,MIC,Acinetobacter baumannii [7],> 32 µg/mL
same,MIC,Acinetobacter baumannii [8],> 32 µg/mL
same,MIC,Acinetobacter baumannii [9],> 32 µg/mL
same,MIC,Acinetobacter baumannii [10],12 µg/mL
same,MIC,Acinetobacter baumannii [11],> 32 µg/mL
same,MIC,Acinetobacter baumannii [12],> 32 µg/mL
same,MIC,Acinetobacter baumannii [13],> 32 µg/mL
same,MIC,Acinetobacter baumannii [14],> 32 µg/mL
same,MIC,Acinetobacter baumannii [15],> 32 µg/mL
same,MIC,Acinetobacter baumannii [16],> 32 µg/mL
same,MIC,Acinetobacter baumannii [17],> 32 µg/mL
CCN1CCN(C(=O)N[C@@H](C(=O)N[C@@H]2C(=O)N3[C@@H]2SC(C)(C)[C@@H]3C(=O)O)c2ccccc2)C(=O)C1=O [PIPERACILLIN],MIC,Acinetobacter baumannii [1],> 128 µg/mL
same,MIC,Acinetobacter baumannii [2],> 128 µg/mL
same,MIC,Acinetobacter baumannii [3],> 128 µg/mL
same,MIC,Acinetobacter baumannii [4],> 128 µg/mL
same,MIC,Acinetobacter baumannii [5],> 128 µg/mL
same,MIC,Acinetobacter baumannii [6],> 128 µg/mL
same,MIC,Acinetobacter baumannii [7],> 128 µg/mL
same,MIC,Acinetobacter baumannii [8],> 128 µg/mL
same,MIC,Acinetobacter baumannii [9],> 128 µg/mL
same,MIC,Acinetobacter baumannii [10],> 128 µg/mL
same,MIC,Acinetobacter baumannii [11],> 128 µg/mL
same,MIC,Acinetobacter baumannii [12],> 128 µg/mL
same,MIC,Acinetobacter baumannii [13],> 128 µg/mL
same,MIC,Acinetobacter baumannii [14],> 128 µg/mL
same,MIC,Acinetobacter baumannii [15],> 128 µg/mL
same,MIC,Acinetobacter baumannii [16],> 128 µg/mL
same,MIC,Acinetobacter baumannii [17],> 128 µg/mL
C[C@]1(Cn2ccnn2)[C@H](C(=O)O)N2C(=O)C[C@H]2S1(=O)=O [TAZOBACTAM],MIC,Acinetobacter baumannii [1],4 µg/mL
same,MIC,Acinetobacter baumannii [2],4 µg/mL
same,MIC,Acinetobacter baumannii [3],4 µg/mL
same,MIC,Acinetobacter baumannii [4],4 µg/mL
same,MIC,Acinetobacter baumannii [5],4 µg/mL
same,MIC,Acinetobacter baumannii [6],4 µg/mL
same,MIC,Acinetobacter baumannii [7],4 µg/mL
same,MIC,Acinetobacter baumannii [8],4 µg/mL
same,MIC,Acinetobacter baumannii [9],4 µg/mL
same,MIC,Acinetobacter baumannii [10],4 µg/mL
same,MIC,Acinetobacter baumannii [11],4 µg/mL
same,MIC,Acinetobacter baumannii [12],4 µg/mL
same,MIC,Acinetobacter baumannii [13],4 µg/mL
same,MIC,Acinetobacter baumannii [14],4 µg/mL
same,MIC,Acinetobacter baumannii [15],4 µg/mL
same,MIC,Acinetobacter baumannii [16],4 µg/mL
same,MIC,Acinetobacter baumannii [17],4 µg/mL
CN(C)c1cc(NC(=O)CNC(C)(C)C)c(O)c2c1C[C@H]1C[C@H]3[C@H](N(C)C)C(O)=C(C(N)=O)C(=O)[C@@]3(O)C(O)=C1C2=O [TIGECYCLINE],MIC,Acinetobacter baumannii [18],4 µg/mL
same,MIC,Acinetobacter baumannii [1],8 µg/mL
same,MIC,Acinetobacter baumannii [2],2 µg/mL
same,MIC,Acinetobacter baumannii [19],4 µg/mL
same,MIC,Acinetobacter baumannii [3],8 µg/mL
same,MIC,Acinetobacter baumannii [4],8 µg/mL
same,MIC,Acinetobacter baumannii [20],4 µg/mL
same,MIC,Acinetobacter baumannii [5],2 µg/mL
same,MIC,Acinetobacter baumannii [21],6 µg/mL
same,MIC,Acinetobacter baumannii [6],8 µg/mL
same,MIC,Acinetobacter baumannii [7],4 µg/mL
same,MIC,Acinetobacter baumannii [22],8 µg/mL
same,MIC,Acinetobacter baumannii [8],8 µg/mL
same,MIC,Acinetobacter baumannii [9],16 µg/mL
same,MIC,Acinetobacter baumannii [23],2 µg/mL
same,MIC,Acinetobacter baumannii [24],3 µg/mL
same,Css,Serum,630 ng/mL
same,MIC,Acinetobacter baumannii [10],2 µg/mL
same,MIC,Acinetobacter baumannii [11],6 µg/mL
same,MIC,Acinetobacter baumannii [12],8 µg/mL
same,MIC,Acinetobacter baumannii [25],4 µg/mL
same,MIC,Acinetobacter baumannii [26],4 µg/mL
same,MIC,Acinetobacter baumannii [27],4 µg/mL
same,MIC50,Acinetobacter baumannii [28],16 µg/mL
same,MIC90,Acinetobacter baumannii [28],32 µg/mL
same,MIC,Acinetobacter baumannii [29],6 µg/mL
same,MIC,Acinetobacter baumannii [30],8 µg/mL
same,MIC,Acinetobacter baumannii [13],12 µg/mL
same,MIC,Acinetobacter baumannii [14],8 µg/mL
same,MIC,Acinetobacter baumannii [31],3 µg/mL
same,MIC,Acinetobacter baumannii [32],4 µg/mL
same,MIC50,Acinetobacter baumannii [33],2 µg/mL
same,MIC90,Acinetobacter baumannii [33],4 µg/mL
same,MIC,Acinetobacter baumannii [15],2 µg/mL
same,MIC,Acinetobacter baumannii [16],4 µg/mL
same,MIC,Acinetobacter baumannii [17],6 µg/mL
same,MIC,Acinetobacter baumannii [34],4 µg/mL
same,MIC,Acinetobacter baumannii [35],4 µg/mL
same,MIC,Acinetobacter baumannii [36],4 µg/mL
